# Structures can show the parent of a compound that is named as a salt.
# Experiments:
# [1] = tested on: contractile response to potassium-induced depolarization on isolated rat aorta; assay: Calcium inhibitory properties: antagonism of contractile response to potassium-induced depolarization on isolated rat aorta; design: species or system rat (male Wistar); conditions: percent of maximal contraction before incubation, 60 min
# Excerpt: It is well established that the depolarization of a smooth muscle membrane by potassium makes the latter permeable to extracellular calcium and induces muscle contraction. Consequently, the measurement of inhibition of the contractile response to depolarization by potassium or the measurement of relaxation of the tonic contraction on potassium depolarization can provide an evaluation of the potency of a compound as an inhibitor of the membrane permeability to Ca^++ ions. The technique used is the following: The aorta is removed from male Wistar rats weighing about 300 g and cut into strips approximately 40 mm long and 3 mm wide. These fragments are placed in a 25 ml isolated organ bath containing modified Krebs-bicarbonate solution (112 mM NaCL; 5 mM KCl; 25 mM NaHCO3; 1 mM KH2 PO4; 1.2 mM MgSO4; 2.5 mM CaCl2; 11.5 mM glucose, made up to 1000 ml with distilled water) maintained at 37° C. and through which a stream of carbon dioxide is passed. The preparation is connected to a force microsensor and the contractile response is recorded after amplification on a recorder. A tension of 2g is applied to the preparation. This latter is maintained in the modified Krebs-bicarbonate solution for 60 minutes, and then contractions are induced by replacing the Krebsbi-carbonate solution by a Krebs-potassium solution (17 mM NaCl; 100 mM KCl; 25 mM NaHCO3; 1 mM KH2 PO4; 1.2 mM MgSO4; 2.5 mM CaCl2; 11.5 mM glucose; made up to 1000 ml with distilled water). When the contractile response of the preparation has become reproducible, a given amount of the compound of the invention is introduced into the bath. Sixty minutes later a new spasm is induced by potassium depolarization. The results obtained on the aorta under investigation are then expressed in percent of the maximal contractional effect before incubation with the test substance. As examples, the following results were obtained, the compounds of formula (1) being in the form of the free base, the hydrochloride, oxalate or fumarate.
# [2] = tested on: acceleration of the heart rate induced by isoprenaline (anti-β effect); assay: Anti-β effect: reduction of isoprenaline-induced acceleration of the heart rate in anesthetized atropinized dog; type: in vivo; design: key to Anti-β effect: +: for a reduction <50%; ++: for a reduction ≥50%; +++: for an almost complete reduction
# Procedure: The aim of this test is to determine the capacity of the compounds of the invention to reduce the increase in blood pressure induced by epinephrine (anti-αeffect) and the acceleration of the heart rate induced by isoprenaline (anti-βeffect) in the dog previously anesthetized with pentobarbital and atropinized.
# (§1) First, are determined for each dog the dose of epinephrine (between 3 and 10 μg/kg) which causes a reproducible increase in arterial blood pressure of about 133.10^2 Pa and the dose of isoprenaline (1 to 2 μg/kg) which causes a reproducible increase in the heart rate of about 70 beats/minute. The doses of epinephrine and isoprenaline thus determined are injected alternatively every ten minutes and after the two consecutive reference responses have been obtained, a quantity of the test compound is administered by the intravenous route.
# The percentage reduction of the acceleration of the heart rate caused by the test compound compared with the reference tachycardia previously measured (about 70 beats) is recorded.
# In both cases, the results of the reduction in arterial pressure and heart rate are expressed as follows: […]
# [3] = tested on: increase in blood pressure induced by epinephrine (anti-α effect); assay: Anti-α effect: reduction of epinephrine-induced increase in blood pressure in anesthetized atropinized dog; type: in vivo; design: key: +: for a reduction <50%; ++: for a reduction ≥50%; +++: for an almost complete reduction
# Procedure: as §1, with “The aim of this test is to determine the capacity of the compounds of the invention to reduce the increase in blood pressure induced by epinephrine (anti-αeffect) and the acceleration of the heart rate induced by isoprenaline (anti-βeffect) in the dog previously anesthetized with pentobarbital and atropinized. First,” for “First,”, “route. The percentage reduction of the hypertension caused by the test compound in comparison with the reference hypertension previously obtained (about 100 mm Hg) is recorded. In both cases, the results of the reduction in arterial pressure and heart rate are expressed as follows: […]” for “route.”
SMILES,"% maximal contractional effect ([1]; 10^-7 M, 0.1 µM)","% maximal contractional effect ([1]; 10^-8 M, 0.01 µM)","% maximal contractional effect ([1]; 10^-9 M, 0.001 µM)","% maximal contractional effect ([1]; 10^-10 M, 0.0001 µM)","inhibition in vivo at 0.035 mg/kg ([2]; Canis lupus familiaris, intravenous, 0,035 mg/kg) [%]","Anti-α effect ([3]; intravenous, 0,035 mg/kg)","inhibition in vivo at 1 mg/kg ([2]; Canis lupus familiaris, intravenous, 1 mg/kg) [%]","Anti-α effect ([3]; intravenous, 1 mg/kg)","Anti-β effect ([2]; intravenous, 0,1 mg/kg)","Anti-α effect ([3]; intravenous, 0,1 mg/kg)","Anti-β effect ([2]; intravenous, 0,05 mg/kg)","Anti-α effect ([3]; intravenous, 0,05 mg/kg)","Anti-β effect ([2]; intravenous, 0,013 mg/kg)","Anti-α effect ([3]; intravenous, 0,013 mg/kg)"
"COc1ccc2c(c1)c(C(C)C)c(S(=O)(=O)c1ccc(OCCCN(C)CCc3ccc(OC)c(OC)c3)cc1)n2C [Ex. 61, 2-{4-[3-(N-methyl N-3,4-dimethoxy-β-phenethylamino)propoxy]benzenesulfonyl} 3-isopropyl 5-methoxy 1-methyl indole hydrogen fumarate]","15,7%","31,2%","71,4%","89,5%",≥ 50,+++,–,–,–,–,–,–,–,–
"COc1ccc2[nH]c(S(=O)(=O)c3ccc(OCCCN(C)CCc4ccc(OC)c(OC)c4)cc3)c(C(C)C)c2c1 [Ex. 62, 2-{4-[3-(N-methyl N-3,4-dimethoxy-β-phenethylamino)propoxy]benzenesulfonyl} 3-isopropyl 5-methoxy indole hydrogen oxalate]","37,1%","48,7%","93,7%","90,3%",–,–,≥ 50,+++,–,–,–,–,–,–
"COc1ccc(CCN(C)CCCOc2ccc(S(=O)(=O)c3c(C(C)C)n(C)c4cccc(C)c34)cc2)cc1OC [Ex. 65, 3-{4-[3-(N-methyl N-3,4-dimethoxy-β-phenethylamino)propoxy]benzenesulfonyl} 2-isopropyl 1,4-dimethyl indole hydrogen oxalate]","14,3%","29,9%","76,1%","83,5%",–,–,–,–,+++,+++,–,–,–,–
"CCCCN(CCCC)CCCOc1ccc(S(=O)(=O)c2c(C(C)C)n(C)c3cccc(C)c23)cc1.O=C(O)C(=O)O [Ex. 66, 3-{4-[3-(di-n-butylamino)propoxy]benzenesulfonyl} 2-isopropyl 1,4-dimethyl indole hydrogen oxalate]","7,1%","37,1%","83,1%",–,–,–,–,–,–,–,+++,+++,–,–
"COc1cc(CCN(C)CCCOc2ccc(S(=O)(=O)c3c(C(C)C)cn4cccc(C)c34)cc2)cc(OC)c1 [Ex. 76, 1-{4-[3-(N-methyl N-3,5-dimethoxy-β-phenethylamino)propoxy]benzenesulfonyl} 2-isopropyl 8-methyl indolizine]",–,"12,7%","41,8%","64,1%",–,–,–,–,–,–,–,–,+++,+++
